Assay results reported in PMC6222646, “HIV-1 Integrase-Targeted Short Peptides Derived from a Viral Protein R Sequence” (Molecules : A Journal of Synthetic Chemistry and Natural …, 2018).
Where “and” joins values, the source holds several entries; their conditions need not be identical. Equal entries are not always repeated. Where a SMILES comes first, the peptide text is derived from it. [ ]: non-standard residue; d: D form. Bpa = N[C@@H](Cc1ccc(C(=O)c2ccccc2)cc1)C(=O)O

Tests used:
[1] = biological target: HIV-1 IN (Human immunodeficiency virus type 1 group M subtype B, UniProt P12497); assay: HTRF-based IN multimerization assay; format: biochemical; design: WT HIV-1 IN recombinant proteins with His or FLAG tags; made in house; host or cells: Escherichia coli; conditions: 100 µM peptide
Method: WT HIV-1 IN recombinant proteins with His or FLAG tags were expressed in Escherichia coli and purified as described previously. The His6–tagged IN construct was purified by loading the cell lysate onto a Nickel-Sepharose column (GE Healthcare, Chicago, IL, USA) and eluting bound integrase with an imidazole gradient in a 50 mM HEPES (pH 7.5) buffer containing 1 M NaCl, 7.5 mM CHAPS, 2 mM beta-mercaptoethanol. Peak fractions were pooled, diluted and loaded onto a heparin column (GE Healthcare), and integrase was eluted with an increasing NaCl gradient in a 50 mM HEPES (pH 7.5) buffer containing 7.5 mM CHAPS and 2 mM beta-mercaptoethanol. The FLAG-tagged IN construct was purified by loading the ammonium sulfate precipitate of cell lysate onto a phenyl-Sepharose column (GE Healthcare) and eluting bound integrase with a decreasing ammonium sulfate gradient in a 50 mM HEPES (pH 7.5) buffer containing 200 mM NaCl, 7.5 mM CHAPS, 2 mM beta-mercaptoethanol. Peak fractions were pooled and loaded onto a heparin column (GE Healthcare), and integrase was eluted with an increasing NaCl gradient in a 50 mM HEPES (pH 7.5) buffer containing 7.5 mM CHAPS and 2 mM beta-mercaptoethanol. […] The HTRF signal was recorded using a PerkinElmer EnSpire multimode plate reader.

[2] = tested on: 21-mer duplex DNA substrate (21T/21B); assay: Binding to DNA substrate alone by fluorescence anisotropy; conditions: absence of IN; concentrations up to 37 µM
Method: (§1) DNA binding was measured using a plate-based assay following fluorescence polarization of a fluorescent 21-mer duplex DNA substrate (21T/21B duplex oligonucleotide) with an AlexaFluor 488 modification at the 5′-end of the 21T oligonucleotide. Peptide or DMSO (control, without peptide) were incubated at room temperature for 5 min in the IN-activity buffer in the absence or the presence of IN (400 nM). After addition of the DNA (10 nM), fluorescence anisotropy was measured every 30 s for 30 min using an Envision plate reader (Perkin Elmer, Waltham, MA, USA).

[3] = biological target: T1, HIV-1 integrase (IN) (Human immunodeficiency virus type 1 group M subtype B, UniProt P12497); assay: In vitro integrase catalytic assay, 3'-processing (3'-P); format: biochemical; conditions: 400 nM IN, 20 nM 32P-labeled 21T/21B DNA, 37 °C, 2 h
Method: (§2) IN reactions were performed as previously described. […] Reactions were performed at 37 °C (2 h) and quenched by the addition of an equal volume of loading buffer (formamide containing 1% sodium dodecyl sulfate, 0.25% bromophenol blue, and xylene cyanol). Reaction products were separated in 16% polyacrylamide denaturing sequencing gels. Dried gels were visualized using a Typhoon 8600 instrument (GE Healthcare, Chicago, IL, USA). Densitometric analyses were performed using ImageQuant 5.1 software (GE Healthcare, Chicago, IL, USA). Data analyses (linear regression, 50% inhibitory concentration [IC50] determination, standard deviation [SD]) were performed from at least 3 independent determinations using Prism 5.0c software from GraphPad (La Jolla, CA, USA). To assay 3′-P inhibitory potency, reactions were carried out with [γ-^32P]-labeled full-length oligonucleotide 21T ([…]) annealed to the complementary oligonucleotide 21B ([…]). Formation of the shorter processed 19T products was monitored and quantified to assess enzyme performance and inhibitor potency. The ST reactions were carried out with the [γ-^32P]-labeled pre-cleaved oligonucleotide 19T ([…]) annealed to the complementary oligonucleotide 21B ([…]) and formation of integration products (longer and slower migrating than the starting 19T substrate) was monitored to assess enzyme performance and inhibitor potency.

[4] = biological target: T1, HIV-1 integrase (IN); assay: In vitro integrase catalytic assay, strand transfer (ST); format: biochemical; conditions: 400 nM IN, 20 nM 32P-labeled pre-cleaved 19T/21B DNA, 37 °C, 2 h
Method: as §2

[5] = biological target: IN-DNA complex (Human immunodeficiency virus type 1 group M subtype B, UniProt P12497); assay: IN-DNA complex formation by fluorescence anisotropy; format: binding, HIV-1; conditions: IN (400 nM) preincubated with peptide, 10 nM DNA
Method: as §1

[6] = tested on: IN; design: method as in PMID 17490682; conditions: read-out: IN ST-inhibitory potency IC50; cited from earlier work

Row | Compound | Induction of higher-order IN multimerization (HTRF signal) [1] | Binding to DNA substrate alone [2] | IC50 [3] | IC50 [4] | Effect on IN-DNA complex formation (fluorescence polarization) [5] | IC50 [6]
1 | CC[C@H](C)[C@H](NC(=O)[C@H](CCCNC(=N)N)NC(=O)[C@H](Cc1ccccc1)NC(=O)[C@H](Cc1c[nH]cn1)NC(=O)[C@@H](NC(=O)[C@@H](N)Cc1ccccc1)[C@@H](C)CC)C(=O)NCC(=O)O [Peptide 1a, FIHFRIG] (H-FIHFRIG-OH) | did not induce higher-order IN multimerization | no detectable binding | 17.6 ± 1.2 µM | 1 µM and 1.3 µM | did not block the IN–DNA interactions, but rather promoted IN–DNA complex formation | 
2 | CC[C@H](C)[C@H](NC(=O)[C@H](CCCNC(=N)N)NC(=O)[C@H](C)NC(=O)[C@H](Cc1c[nH]cn1)NC(=O)[C@@H](NC(=O)[C@@H](N)Cc1ccccc1)[C@@H](C)CC)C(=O)NCC(N)=O [Peptide 5b, FIHARIG-amide] (H-FIHARIG-NH2) |  |  | > 111 µM | > 111 µM |  | 
3 | CC[C@H](C)[C@H](NC(=O)[C@H](CCCNC(=N)N)NC(=O)[C@H](C)NC(=O)[C@H](Cc1c[nH]cn1)NC(=O)[C@@H](NC(=O)[C@H](Cc1ccccc1)NC(C)=O)[C@@H](C)CC)C(=O)NCC(N)=O [Peptide 5c, Ac-FIHARIG-amide] (Ac-FIHARIG-NH2) |  |  | > 333 µM | 117 ± 10 µM |  | 
4 | CC[C@H](C)[C@H](NC(=O)[C@H](CCCNC(=N)N)NC(=O)[C@H](Cc1ccccc1)NC(=O)[C@H](C)NC(=O)[C@@H](NC(=O)[C@@H](N)Cc1ccccc1)[C@@H](C)CC)C(=O)NCC(=O)O [Peptide 6a, FIAFRIG] (H-FIAFRIG-OH) |  |  | 17.4 ± 2 µM | 6.7 ± 1 µM |  | 
5 | CC[C@H](C)[C@H](NC(=O)[C@H](CCCNC(=N)N)NC(=O)[C@H](Cc1ccccc1)NC(=O)[C@H](C)NC(=O)[C@@H](NC(=O)[C@@H](N)Cc1ccccc1)[C@@H](C)CC)C(=O)NCC(N)=O [Peptide 6b, FIAFRIG-amide] (H-FIAFRIG-NH2) |  |  | 95.4 ± 5 µM | 35 ± 3.2 µM |  | 
6 | CC[C@H](C)[C@H](NC(=O)[C@H](CCCNC(=N)N)NC(=O)[C@H](Cc1ccccc1)NC(=O)[C@H](C)NC(=O)[C@@H](NC(=O)[C@H](Cc1ccccc1)NC(C)=O)[C@@H](C)CC)C(=O)NCC(N)=O [Peptide 6c, Ac-FIAFRIG-amide] (Ac-FIAFRIG-NH2) |  |  | 94 ± 13 µM | 3.5 ± 0.3 µM |  | 
7 | CC[C@H](C)[C@H](NC(=O)[C@H](CCCNC(=N)N)NC(=O)[C@H](Cc1ccccc1)NC(=O)[C@H](Cc1c[nH]cn1)NC(=O)[C@H](C)NC(=O)[C@@H](N)Cc1ccccc1)C(=O)NCC(=O)O [Peptide 7a, FAHFRIG] (H-FAHFRIG-OH) |  |  | > 111 µM | 73.5 ± 6 µM |  | 
8 | CC[C@H](C)[C@H](NC(=O)[C@H](CCCNC(=N)N)NC(=O)[C@H](Cc1ccccc1)NC(=O)[C@H](Cc1c[nH]cn1)NC(=O)[C@H](C)NC(=O)[C@@H](N)Cc1ccccc1)C(=O)NCC(N)=O [Peptide 7b, FAHFRIG-amide] (H-FAHFRIG-NH2) |  |  | > 111 µM | > 111 µM |  | 
9 | CC[C@H](C)[C@H](NC(=O)[C@H](CCCNC(=N)N)NC(=O)[C@H](Cc1ccccc1)NC(=O)[C@H](Cc1c[nH]cn1)NC(=O)[C@H](C)NC(=O)[C@H](Cc1ccccc1)NC(C)=O)C(=O)NCC(N)=O [Peptide 7c, Ac-FAHFRIG-amide] (Ac-FAHFRIG-NH2) |  |  | > 333 µM | 127 ± 14 µM |  | 
10 | CC[C@H](C)[C@H](NC(=O)[C@H](C)N)C(=O)N[C@@H](Cc1c[nH]cn1)C(=O)N[C@@H](Cc1ccccc1)C(=O)N[C@@H](CCCNC(=N)N)C(=O)N[C@H](C(=O)NCC(=O)O)[C@@H](C)CC [Peptide 8a, AIHFRIG] (H-AIHFRIG-OH) |  |  | 86.3 ± 5 µM | 22.7 ± 1.4 µM |  | 
11 | CC[C@H](C)[C@H](NC(=O)[C@H](C)N)C(=O)N[C@@H](Cc1c[nH]cn1)C(=O)N[C@@H](Cc1ccccc1)C(=O)N[C@@H](CCCNC(=N)N)C(=O)N[C@H](C(=O)NCC(N)=O)[C@@H](C)CC [Peptide 8b, AIHFRIG-amide] (H-AIHFRIG-NH2) |  |  | > 111 µM | > 111 µM |  | 
12 | CC[C@H](C)[C@H](NC(=O)[C@H](C)NC(C)=O)C(=O)N[C@@H](Cc1c[nH]cn1)C(=O)N[C@@H](Cc1ccccc1)C(=O)N[C@@H](CCCNC(=N)N)C(=O)N[C@H](C(=O)NCC(N)=O)[C@@H](C)CC [Peptide 8c, Ac-AIHFRIG-amide] (Ac-AIHFRIG-NH2) |  |  | > 333 µM | 46 ± 8 µM |  | 
13 | CC[C@H](C)[C@H](NC(=O)[C@@H](N)Cc1ccccc1)C(=O)N[C@@H](Cc1c[nH]cn1)C(=O)N[C@@H](Cc1ccccc1)C(=O)N[C@@H](CCCNC(=N)N)C(=O)N[C@@H](Cc1ccc(C(=O)c2ccccc2)cc1)C(=O)NCC(=O)O [Peptide 9a, FIHFRBG] (H-FIHFR[Bpa]G-OH) |  |  | 20 ± 3 µM | 4 µM and 4.3 µM |  | 
14 | CC[C@H](C)[C@H](NC(=O)[C@H](Cc1ccc(C(=O)c2ccccc2)cc1)NC(=O)[C@H](Cc1ccccc1)NC(=O)[C@H](Cc1c[nH]cn1)NC(=O)[C@@H](NC(=O)[C@@H](N)Cc1ccccc1)[C@@H](C)CC)C(=O)NCC(=O)O [Peptide 10a, FIHFBIG] (H-FIHF[Bpa]IG-OH) |  |  | > 333 µM | ~50 µM and 48 µM |  | 
15 | CC[C@H](C)[C@H](NC(=O)[C@H](CCCNC(=N)N)NC(=O)[C@H](Cc1ccc(C(=O)c2ccccc2)cc1)NC(=O)[C@H](Cc1c[nH]cn1)NC(=O)[C@@H](NC(=O)[C@@H](N)Cc1ccccc1)[C@@H](C)CC)C(=O)NCC(=O)O [Peptide 11a, FIHBRIG] (H-FIH[Bpa]RIG-OH) |  |  | 34 ± 6 µM | 4.2 ± 0.7 µM |  | 
16 | CC[C@H](C)[C@H](NC(=O)[C@H](CCCNC(=N)N)NC(=O)[C@H](Cc1ccccc1)NC(=O)[C@H](Cc1ccc(C(=O)c2ccccc2)cc1)NC(=O)[C@@H](NC(=O)[C@@H](N)Cc1ccccc1)[C@@H](C)CC)C(=O)NCC(=O)O [Peptide 12a, FIBFRIG] (H-FI[Bpa]FRIG-OH) |  |  | 6.5 ± 0.9 µM | 2.2 ± 0.6 µM |  | 
17 | CC[C@H](C)[C@H](NC(=O)[C@H](CCCNC(=N)N)NC(=O)[C@H](Cc1ccccc1)NC(=O)[C@H](Cc1c[nH]cn1)NC(=O)[C@H](Cc1ccc(C(=O)c2ccccc2)cc1)NC(=O)[C@@H](N)Cc1ccccc1)C(=O)NCC(=O)O [Peptide 13a, FBHFRIG] (H-F[Bpa]HFRIG-OH) |  |  | 37 ± 5 µM | 20 ± 3 µM |  | 
18 | CC[C@H](C)[C@H](NC(=O)[C@H](CCCNC(=N)N)NC(=O)[C@H](Cc1ccccc1)NC(=O)[C@H](Cc1c[nH]cn1)NC(=O)[C@@H](NC(=O)[C@@H](N)Cc1ccc(C(=O)c2ccccc2)cc1)[C@@H](C)CC)C(=O)NCC(=O)O [Peptide 14a, BIHFRIG] (H-[Bpa]IHFRIG-OH) |  |  | 7.2 ± 1.2 µM | 2.1 ± 0.3 µM |  | 
19 | QQLLFIHFRIGCQHS [Vpr (65–79)] |  |  |  |  |  | 14 µM
